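All cell lines were grown in 96-well plates and treated with compound for 48 hours. TGI: total growth inhibition.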
System: SN12K1 renal
Assay: NCI-60 cell line screen, 48 h

CC1[C@@H]2CC=C3[C@H]4CCC5Cc6nc7c(nc6C[C@@]5(C)C4CC(=O)[C@]32CO[C@]12OC(C)(C)CC2O)CC1CC[C@@H]2C3=C[C@H]4O[C@@]5(O[C@@](C)(CO)C[C@@H]5O)C(C)[C@@]4(O)[C@]3(C)[C@@H](O)CC2[C@]1(C)C7 (stereo partly specified)
TGI: 397 nM

Source: PubChem BioAssay (NCI)
